These results are taken from ChEMBL document CHEMBL1201862, “PubChem BioAssay data set” (2004).

Holding throughout (test): DTP human tumour cell line panel, 48 h
The subject of assay [1] is MDA-MB-435.
The test system of assay [2] is RPMI-8226.
For assay [3], the system named is TK-10.
The subject of assay [4] is MDA-MB-231.
Assay [5] relates to SNB-75.
The test system of assay [6] is A498.
Assay [7] has as its system T47D.
Assay [8] relates to DU-145.
Assay [9] concerns NCI-H522.
Assay [10] concerns M14.
In assay [11] the test system is LOX IMVI.
The subject of assay [12] is SF-295.
In assay [13] the test system is SW-620.
The test system of assay [14] is A549.
The test system of assay [15] is K562.
Assay [16] deals with SK-MEL-5.
Assay [17] relates to SF-268.
The test system of assay [18] is HOP-62.
In assay [19] the test system is UACC-257.

For orientation: GI50 means the concentration at which growth is held to half of that of the control.

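Exposure lasted 48 hours, with cells grown in 96-well plates and compounds tested at five concentrations. GI50 = concentration required for 50% inhibition of growth.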 Activity calls are given as the source filed them. Cut-off read from the data, not from the text of the source: active = GI50 up to about 1.1 µM and inactive = higher.

Consider `COc1cc(C2c3cc4c(cc3OC(NNc3ccccc3)C2C)OCO4)cc(OC)c1O` (configuration not stated), for which the 50% growth inhibitory concentration (GI50) in [1] was 0.204 µM (active); in assay [2], 0.995 µM (active); in [3], 4.63 µM (inactive); in [4] it was 1.12 µM (inactive); in assay [5] it was 2.33 µM (inactive); in assay [6] it was 3.85 µM (inactive). Also, the 50% growth inhibitory concentration (GI50) in [7] was 0.757 µM (active); in [8], 2.62 µM (inactive); in assay [9] it was 0.561 µM (active); in assay [10] it was 0.255 µM (active); in assay [11], 0.049 µM (active); in [12], 0.813 µM (active). Besides, the GI50 in assay [13] is 2.59 µM (inactive); in [14] it was 1.41 µM (inactive); in [15], 0.0893 µM (active); in assay [16], 1.3 µM (inactive); in assay [17], 2.58 µM (inactive); in assay [18] it was 5.66 µM (inactive). In addition, in assay [19], the GI50 was 1.48 µM (inactive).

`C[n+]1c2ccccc2c(C(=O)Nc2ccc(S(=O)(=O)N=C(N)N)cc2)c2ccccc21`: the GI50 in [1] was > 100 µM (inactive); in [2], > 100 µM (inactive); in assay [3], > 100 µM (inactive); in assay [4], 23.2 µM (inactive); in [5] it was > 100 µM (inactive); in assay [6], > 100 µM (inactive). Also, the GI50 in [7] was > 100 µM (inactive); in [8], > 100 µM (inactive); in assay [9], > 100 µM (inactive); in assay [10], > 100 µM (inactive); in [11], 75.3 µM (inactive); in [12], > 100 µM (inactive). Besides, the GI50 in assay [13], in assay [14], in assay [15], in assay [16], in assay [17] and in assay [18] was > 100 µM (inactive) throughout. The GI50 in assay [19] was > 100 µM (inactive).

Consider `Cc1ccc(C(=O)CC(Cl)=C(Cl)Cl)cc1`, for which the GI50 was 55.7 µM (inactive) in [1]; 29.2 µM (inactive) in [2]; > 100 µM (inactive) in assay [3]; 98.2 µM (inactive) in [4]; > 100 µM (inactive) in assay [5]; > 100 µM (inactive) in assay [6]. For the same compound, the GI50 is 50.6 µM (inactive) in [7]; > 100 µM (inactive) in assay [8]; 49.3 µM (inactive) in [9]; > 100 µM (inactive) in [10]; 31.7 µM (inactive) in assay [11]; 25.6 µM (inactive) in [12]. Moreover, the GI50 was > 100 µM (inactive) in assay [13]; > 100 µM (inactive) in assay [14]; 41.6 µM (inactive) in assay [15]; > 100 µM (inactive) in [16]; > 100 µM (inactive) in [17]; > 100 µM (inactive) in assay [18]. Also, in assay [19], the GI50 is 65.9 µM (inactive).

Turning to `CC1=NOC(C)(O)/C1=N/O` (configuration not stated), the GI50 in assay [1], in [2], in [3], in [4], in assay [5] and in [6] was > 100 µM (inactive) throughout. Also, the GI50 in assay [7], in assay [8], in [9], in assay [10], in assay [11] and in assay [12] was > 100 µM (inactive) in each case. Moreover, the GI50 in assay [13], in assay [14], in assay [15], in assay [16], in assay [17] and in assay [18] was > 100 µM (inactive) each time. Further, the GI50 in assay [19] is > 100 µM (inactive).

Regarding `CC1=NC(=Cc2ccccc2O)C(=O)N1n1c(-c2ccccc2)nc2ccccc2c1=O`, the GI50 in assay [1] was 46.9 µM (inactive); in assay [2] it was 48.5 µM (inactive); in assay [3], 39.4 µM (inactive); in assay [4], 33.2 µM (inactive); in assay [5] it was 34.1 µM (inactive); in assay [6] it was 62.8 µM (inactive). Also, the GI50 in assay [7] is 21.5 µM (inactive); in [8], 29.1 µM (inactive); in [9], 62.8 µM (inactive); in assay [10], 61.1 µM (inactive); in assay [11], 33 µM (inactive); in assay [12], 37.3 µM (inactive). Besides, the GI50 in [13] was 49.1 µM (inactive); in [14], 35.1 µM (inactive); in [15], 30.5 µM (inactive); in assay [16], 23.8 µM (inactive); in assay [17], 33.7 µM (inactive); in [18], 55.1 µM (inactive). Moreover, the GI50 in assay [19] was 41.9 µM (inactive).

For `Oc1c(Br)c(-c2ccccc2)nc2ccccc12`, the GI50 is 43.3 µM (inactive) in [1]; 20.7 µM (inactive) in [2]; 57.8 µM (inactive) in assay [3]; 2.87 µM (inactive) in [4]; 8.15 µM (inactive) in assay [5]; 5.35 µM (inactive) in assay [6]. Also, the GI50 is 8.3 µM (inactive) in assay [7]; > 69.5 µM (inactive) in [8]; > 10 µM (inactive) in [9]; 47 µM (inactive) in [10]; 64 µM (inactive) in [11]; 8.75 µM (inactive) in [12]. Also, the GI50 is 97.5 µM (inactive) in assay [13]; 1.98 µM (inactive) in [14]; 1.9 µM (inactive) in [15]; 8.15 µM (inactive) in assay [16]; > 10 µM (inactive) in assay [17]; > 62.1 µM (inactive) in assay [18]. In addition, the GI50 in [19] was 36.7 µM (inactive).

As for `COC1=CC(=O)C2=C(C1=O)[C@H]1CC[C@]3(C)[C@@H](O)CC[C@H]3[C@@H]1CC2`, the GI50 was 17.9 µM (inactive) in [1]; 19.3 µM (inactive) in assay [2]; 27.9 µM (inactive) in assay [3]; 2.21 µM (inactive) in assay [4]; 17.9 µM (inactive) in assay [5]; 52.8 µM (inactive) in [6]. The GI50 in assay [7] is 13.8 µM (inactive); in assay [8], 17.2 µM (inactive); in [9] it was 17.9 µM (inactive); in assay [10], 17.5 µM (inactive); in assay [11], 19.8 µM (inactive); in assay [12], 16.7 µM (inactive). The GI50 in assay [13] is 32.7 µM (inactive); in [14] it was 18.4 µM (inactive); in assay [15] it was 28.9 µM (inactive); in assay [16] it was 15.5 µM (inactive); in assay [17] it was 17.3 µM (inactive); in [18], 16.2 µM (inactive). The GI50 in [19] was 16.4 µM (inactive).

For the compound `CC(=O)Nc1c2sscc-2n(C)c1=O` [THIOLUTIN], the GI50 in assay [1] is 1.01 µM (active); in assay [2], 0.575 µM (active); in assay [3] it was 2.15 µM (inactive); in [4] it was 1.73 µM (inactive); in assay [5], 1.67 µM (inactive); in assay [6], 1.86 µM (inactive). The GI50 in assay [7] was 1.58 µM (inactive); in [8], 0.634 µM (active); in assay [9], 1.3 µM (inactive); in assay [10], 0.314 µM (active); in [11], 1.86 µM (inactive); in assay [12], 1.35 µM (inactive). In addition, the 50% growth inhibitory concentration (GI50) was 0.664 µM (active) in [13]; 1.55 µM (inactive) in assay [14]; 1.52 µM (inactive) in [15]; 1.33 µM (inactive) in assay [16]; 1.56 µM (inactive) in assay [17]; 1.67 µM (inactive) in assay [18]. Moreover, the GI50 in [19] was 1.57 µM (inactive).
